Values of other authors in US11052042B2, “Aqueous suspensions of ciclesonide for nebulisation” (Covis Pharma B.V., priority 2003, dated 2021).

CC(C)C(=O)OCC(=O)[C@@]12O[C@H](C3CCCCC3)O[C@@H]1C[C@H]1[C@@H]3CCC4=CC(=O)C=C[C@]4(C)[C@H]3[C@@H](O)C[C@@]12C [Ciclesonide, [11β,16α(R)]-16,17-[(Cyclohexylmethylen)bis(oxy)]-11-hydroxy-21-(2-methyl-1-oxopropoxy)pregna-1,4-dien-3,20-dion]
concentration of the drug in the lungs (in vivo): high
metabolism by liver oxidases (in vivo): very high
plasma half-life (in vivo): low
absorption after oral administration (oral administration): only moderately absorbed
anti-inflammatory activity compared with budesonide (relative to budesonide): higher
systemic activity compared with budesonide (relative to budesonide): three times lower
